Measured values: patent publication US20110105496A1, “Methods For The Treatment Of Myosin Heavy Chain-Mediated Conditions Using 4,7-Dihydrothieno[2,3-B]Pyridine Compounds” (priority 2005, published 2011)

System: alpha-MyHC
Experiment: alpha-MyHC cytoblot process in neonatal rat ventricular myocytes (NRVM)
Type: cell-based
Conditions: NRVM, 72 hours; for EC50: alpha-MyHC cytoblot; for Max Plateau: maximum of dose response fit
[1] = Table 1, low control = vehicle only

| SMILES | EC50 (Table 1, mean ± spread) [nM] | Max Plateau [1] | EC50 (Table 2 (esters)) [nM] | Max Plateau (Table 2 (esters)) |
| --- | --- | --- | --- | --- |
| CCC(=O)C1=C(CC)Nc2sc(C(=O)c3ccc(Cl)c(Cl)c3)c(N)c2C1c1cc(F)cc(F)c1 (stereo not shown) [Compound 100] | 5.73 | 262.04 ± 31.65 per cent fraction of low control | – | – |
| CCC(=O)C1=C(CC)Nc2sc(C(=O)c3ccc(F)c(F)c3)c(N)c2C1c1cc(F)cc(F)c1 (stereo not shown) [Compound 101] | 3.72 | 230.49 ± 17.13 per cent fraction of low control | – | – |
| CCC(=O)C1=C(CC)Nc2sc(C(=O)c3ccc(F)c(F)c3)c(N)c2C1c1ccnc(F)c1 (stereo not shown) [Compound 102] | 4.18 | 269.88 ± 36.90 per cent fraction of low control | – | – |
| CCC(=O)C1=C(CC)Nc2sc(C(=O)c3cccnc3)c(N)c2C1c1ccnc(F)c1 (stereo not shown) [Compound 103] | 10.5 | 254.65 ± 31.26 per cent fraction of low control | – | – |
| CCC(=O)C1=C(CC)Nc2sc(C(=O)c3ccc(Cl)c(Cl)c3)c(N)c2C1c1ccncc1 (stereo not shown) [Compound 104, 1-[3-amino-2-(3,4 dichloro-benzoyl)-6-ethyl-4 pyridin-4-yl-4,7 dihydro-thieno[2,3-b]pyridin-5-yl]-propan-1-one] | – | 242.77 ± 33.52 per cent fraction of low control | – | – |
| CCC(=O)C1=C(CC)Nc2sc(C(=O)c3ccccc3)c(N)c2C1c1cc(F)cc(F)c1 (stereo not shown) [Compound 105] | 4.38 | 273.18 ± 37.33 per cent fraction of low control | – | – |
| CCC(=O)C1=C(CC)Nc2sc(C(=O)c3ccccc3Br)c(N)c2C1c1ccccc1 (stereo not shown) [Compound 106] | 8.93 | 244.21 ± 29.53 per cent fraction of low control | – | – |
| CCC(=O)C1=C(CC)Nc2sc(C(=O)c3c(Cl)cccc3Cl)c(N)c2C1c1ccccc1F (stereo not shown) [Compound 107] | 1.67 | 273.85 ± 29.06 per cent fraction of low control | – | – |
| CCC(=O)C1=C(CC)Nc2sc(C(=O)c3ccc(F)c(F)c3)c(N)c2C1c1ccccc1F (stereo not shown) [Compound 108, 1-[3-amino-2-(3,4 difluoro-benzoyl)-6-ethyl-4-(2 fluoro-phenyl)-4,7 dihydro-thieno[2,3-b]pyridine-5-yl]propan-1-one] | – | 266.30 ± 58.14 per cent fraction of low control | – | – |
| CCC(=O)C1=C(CC)Nc2sc(C(=O)c3ccc(C#N)cc3)c(N)c2C1c1ccccc1 (stereo not shown) [Compound 112] | – | 266.67 ± 57.74 per cent fraction of low control | – | – |
| CCOC(=O)C1=C(C)Nc2sc(C(=O)c3ccc(Cl)c(Cl)c3)c(N)c2C1c1ccccc1 (stereo not shown) [Compound 113] | – | – | 68 | 256.38 per cent fraction of low control |
| COC(=O)C1=C(C(C)C)Nc2sc(C(=O)c3ccc(Cl)c(Cl)c3)c(N)c2C1c1ccccc1 (stereo not shown) [Compound 116] | – | – | 70 | 107.57 per cent fraction of low control |
| COCCOC(=O)C1=C(C)Nc2sc(C(=O)c3ccc(Cl)c(Cl)c3)c(N)c2C1c1ccccc1 (stereo not shown) [Compound 119] | – | – | 142 | 234.93 per cent fraction of low control |
| COCC1=C(C(=O)OC)C(c2ccccc2)c2c(sc(C(=O)c3ccc(Cl)c(Cl)c3)c2N)N1 (stereo not shown) [Compound 120] | – | – | 157 | 140.79 per cent fraction of low control |
| CC1=C(C(=O)OCCN2CCOCC2)C(c2ccccc2)c2c(sc(C(=O)c3ccc(Cl)c(Cl)c3)c2N)N1 (stereo not shown) [Compound 126] | – | – | 210 | 193.06 ± 11.02 per cent fraction of low control |
| C=CCOC(=O)C1=C(C)Nc2sc(C(=O)c3ccc(Cl)c(Cl)c3)c(N)c2C1c1ccccc1 (stereo not shown) [Compound 127] | – | – | 54 | 195.71 ± 29.42 per cent fraction of low control |
| CC1=C(C(=O)OCC2CCCN2C)C(c2ccccc2)c2c(sc(C(=O)c3ccc(Cl)c(Cl)c3)c2N)N1 (stereo not shown) [Compound 129] | – | – | 4580 | 150.08 ± 9.89 per cent fraction of low control |
| COC(=O)C1=C(C(C)(C)C)Nc2sc(C(=O)c3ccc(Cl)c(Cl)c3)c(N)c2C1c1ccccc1 (stereo not shown) [Compound 131] | – | – | 2900 | 158.97 per cent fraction of low control |
| COC(=O)C1=C(C2CC2)Nc2sc(C(=O)c3ccc(Cl)c(Cl)c3)c(N)c2C1c1ccccc1 (stereo not shown) [Compound 133] | – | – | 71.5 | 180.24 per cent fraction of low control |
| COC(=O)C1=C(C(C)C)Nc2sc(C(=O)c3ccc(Cl)c(Cl)c3)c(N)c2C1c1cccc([N+](=O)[O-])c1 (stereo not shown) [Compound 134] | – | – | – | 98.33 per cent fraction of low control |
| CC1=C(C(=O)OC(C)C)C(c2ccccc2)c2c(sc(C(=O)c3ccc(Cl)c(Cl)c3)c2N)N1 (stereo not shown) [Compound 135] | – | – | 118 | 186.32 per cent fraction of low control |
| CCC1=C(C(=O)OC)C(c2c(F)cccc2F)c2c(sc(C(=O)c3ccc(Cl)c(Cl)c3)c2N)N1 (stereo not shown) [Compound 137] | – | – | 15.6 | 213.90 per cent fraction of low control |

| SMILES | EC50 (Table 1, mean ± spread) [nM] | Max Plateau [1] | EC50 (Table 2 (esters)) [nM] | Max Plateau (Table 2 (esters)) |
| --- | --- | --- | --- | --- |
| CCC1=C(C(=O)OC)C(c2ccccc2)c2c(sc(C(=O)c3cccc([N+](=O)[O-])c3)c2N)N1 (stereo not shown) [Compound 139] | – | – | 6.91 | 281.08 per cent fraction of low control |
| CCC1=C(C(=O)OC)C(c2ccccc2F)c2c(sc(C(=O)c3cccc([N+](=O)[O-])c3)c2N)N1 (stereo not shown) [Compound 140] | – | – | 2.42 | 266.63 per cent fraction of low control |
| CCC1=C(C(=O)OC)C(c2c(F)cccc2F)c2c(sc(C(=O)c3cccc([N+](=O)[O-])c3)c2N)N1 (stereo not shown) [Compound 141] | – | – | 14.3 | 261.69 per cent fraction of low control |
| CCOC(=O)C1=C(CC)Nc2sc(C(=O)c3ccc(Cl)c(Cl)c3)c(N)c2C1c1ccccc1F (stereo not shown) [Compound 142] | – | – | 6.78 | 194.32 per cent fraction of low control |
| CCC1=C(C(=O)OC)C(c2ccccc2)c2c(sc(C(=O)c3cccc(C#N)c3)c2N)N1 (stereo not shown) [Compound 143] | – | – | 5.24 | 290.53 per cent fraction of low control |
| COC(=O)C1=C(C2CC2)Nc2sc(C(=O)c3ccc(Cl)c(Cl)c3)c(N)c2C1c1ccccc1F (stereo not shown) [Compound 144] | – | – | 63.3 | 187.17 per cent fraction of low control |
| CCOC(=O)C1=C(CC)Nc2sc(C(=O)c3ccc(Cl)cc3Cl)c(N)c2C1c1ccccc1 (stereo not shown) [Compound 145] | – | – | 123 | 224.48 per cent fraction of low control |
| CCOC(=O)C1=C(CC)Nc2sc(C(=O)c3cc(Cl)ccc3Cl)c(N)c2C1c1ccccc1 (stereo not shown) [Compound 146] | – | – | 4.03 | 213.49 per cent fraction of low control |
| CCOC(=O)C1=C(CC)Nc2sc(C(=O)c3cc(C(F)(F)F)cc(C(F)(F)F)c3)c(N)c2C1c1ccccc1 (stereo not shown) [Compound 149] | – | – | 11.1 | 207.18 per cent fraction of low control |
| CCC1=C(C(=O)OC)C(c2ccccc2F)c2c(sc(C(=O)c3ccc(Cl)c(C)c3)c2N)N1 (stereo not shown) [Compound 150] | – | – | 21.4 | 228.28 per cent fraction of low control |
| CCOC(=O)C1=C(CC)Nc2sc(C(=O)c3cc(F)cc(F)c3)c(N)c2C1c1ccccc1 (stereo not shown) [Compound 151] | – | – | 10.1 | 273.61 per cent fraction of low control |
| CCOC(=O)C1=C(CC)Nc2sc(C(=O)c3cccc(C(=O)O)c3)c(N)c2C1c1ccccc1 (stereo not shown) [Compound 152] | – | – | 2910 | 238.69 per cent fraction of low control |
| CCC1=C(C(=O)OC)C(c2ccc(F)cc2F)c2c(sc(C(=O)c3ccc(Cl)c(Cl)c3)c2N)N1 (stereo not shown) [Compound 153] | – | – | 15.3 | 234.66 per cent fraction of low control |
| COC(=O)C1=C(CCc2ccccc2)Nc2sc(C(=O)c3ccc(Cl)c(Cl)c3)c(N)c2C1c1ccccc1F (stereo not shown) [Compound 154] | – | – | 303 | 125.87 per cent fraction of low control |
| CCC1=C(C(=O)OC)C(c2cccc(Cl)c2F)c2c(sc(C(=O)c3ccc(Cl)c(Cl)c3)c2N)N1 (stereo not shown) [Compound 155] | – | – | 19.3 | 224.86 per cent fraction of low control |
| CCC1=C(C(=O)OC)C(c2cccc(Cl)c2F)c2c(sc(C(=O)c3cccc([N+](=O)[O-])c3)c2N)N1 (stereo not shown) [Compound 156] | – | – | 3.69 | 243.78 per cent fraction of low control |
| CCC1=C(C(=O)OC2CCCCC2)C(c2ccccc2)c2c(sc(C(=O)c3ccc(Cl)c(Cl)c3)c2N)N1 (stereo not shown) [Compound 160] | – | – | 75.4 | 186.95 per cent fraction of low control |
| CCC1=C(C(=O)OCC(C)C)C(c2ccccc2)c2c(sc(C(=O)c3ccc(Cl)c(Cl)c3)c2N)N1 (stereo not shown) [Compound 161] | – | – | 35.4 | 232.35 per cent fraction of low control |
| CCC1=C(C(=O)OC)C(c2ccccc2F)c2c(sc(C(=O)c3cccc(C#N)c3)c2N)N1 (stereo not shown) [Compound 164] | – | – | 2.83 | 279.90 per cent fraction of low control |
| CCC1=C(C(=O)OC)C(c2ccccc2F)c2c(sc(C(=O)c3cccc(Cl)c3)c2N)N1 (stereo not shown) [Compound 167] | – | – | 111000 | 255.95 per cent fraction of low control |
| CCOC(=O)C1=C(CC)Nc2sc(C(=O)c3ccc(Cl)c(Cl)c3)c(N)c2C1c1ccncc1F (stereo not shown) [Compound 168] | – | – | 7.12 | 239.64 per cent fraction of low control |
